Bounds are passed on as bounds.

The target in this experiment is GCN2 (Homo sapiens (Human), UniProt Q9P2K8). In words: GCN2 Biochemical Assay (TR-FRET, GFP-eIF2S1 substrate phosphorylation). As to conditions: read-out: IC50 (GCN2 Inhibitory Activity). How it is done: Experimental Example 1: GCN2 Biochemical Assay
Chain of GCN2 (Q9P2K8 whole entry): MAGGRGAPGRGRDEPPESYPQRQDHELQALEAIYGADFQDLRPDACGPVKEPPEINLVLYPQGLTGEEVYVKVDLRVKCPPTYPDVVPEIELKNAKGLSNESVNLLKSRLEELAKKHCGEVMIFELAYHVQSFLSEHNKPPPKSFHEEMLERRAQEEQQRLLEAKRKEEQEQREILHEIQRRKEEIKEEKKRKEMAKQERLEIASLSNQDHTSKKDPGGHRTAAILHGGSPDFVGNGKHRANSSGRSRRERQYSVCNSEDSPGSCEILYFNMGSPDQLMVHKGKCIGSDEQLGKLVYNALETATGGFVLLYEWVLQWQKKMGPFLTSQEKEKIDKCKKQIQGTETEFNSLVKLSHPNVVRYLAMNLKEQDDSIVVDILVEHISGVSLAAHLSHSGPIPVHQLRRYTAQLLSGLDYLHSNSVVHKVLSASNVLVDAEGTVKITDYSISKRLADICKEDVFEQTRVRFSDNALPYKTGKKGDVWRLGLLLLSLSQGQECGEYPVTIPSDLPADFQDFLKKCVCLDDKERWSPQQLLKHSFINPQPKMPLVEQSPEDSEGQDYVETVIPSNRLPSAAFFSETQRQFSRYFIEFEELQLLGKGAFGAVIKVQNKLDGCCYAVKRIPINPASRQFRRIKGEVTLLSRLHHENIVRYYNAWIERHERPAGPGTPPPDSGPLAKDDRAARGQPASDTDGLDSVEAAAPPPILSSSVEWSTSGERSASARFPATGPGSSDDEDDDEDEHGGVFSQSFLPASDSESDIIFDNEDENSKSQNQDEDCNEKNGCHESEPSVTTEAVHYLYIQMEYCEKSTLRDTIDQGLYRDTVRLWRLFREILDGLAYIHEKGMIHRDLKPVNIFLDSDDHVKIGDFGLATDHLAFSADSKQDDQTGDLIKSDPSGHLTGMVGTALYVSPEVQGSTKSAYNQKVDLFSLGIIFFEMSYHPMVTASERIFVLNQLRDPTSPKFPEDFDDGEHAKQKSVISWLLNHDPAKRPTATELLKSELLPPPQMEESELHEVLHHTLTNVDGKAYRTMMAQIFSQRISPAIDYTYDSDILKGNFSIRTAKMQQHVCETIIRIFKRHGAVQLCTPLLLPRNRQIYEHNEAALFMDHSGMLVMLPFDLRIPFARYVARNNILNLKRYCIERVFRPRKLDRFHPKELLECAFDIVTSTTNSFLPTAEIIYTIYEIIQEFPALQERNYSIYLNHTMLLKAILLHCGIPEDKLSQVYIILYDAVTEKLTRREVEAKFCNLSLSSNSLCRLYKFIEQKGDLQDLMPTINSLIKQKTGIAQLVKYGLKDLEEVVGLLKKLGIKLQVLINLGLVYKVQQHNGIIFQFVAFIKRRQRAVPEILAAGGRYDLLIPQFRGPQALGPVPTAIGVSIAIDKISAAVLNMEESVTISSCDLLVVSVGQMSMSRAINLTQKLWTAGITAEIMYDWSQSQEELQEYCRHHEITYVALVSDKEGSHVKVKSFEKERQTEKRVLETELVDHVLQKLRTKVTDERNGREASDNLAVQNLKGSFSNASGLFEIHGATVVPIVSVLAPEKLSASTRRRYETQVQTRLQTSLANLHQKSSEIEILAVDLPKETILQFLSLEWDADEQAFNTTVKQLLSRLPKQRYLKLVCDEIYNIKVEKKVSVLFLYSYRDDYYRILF
An inhibitory effect of the inventive compound on GCN2 was identified as follows.
384-well (Greiner #784075) (or 1536-well [Greiner #782075]) plates containing 60 nl (or 20 nl for 1536-well) of compound in 100% DMSO (10 concentrations serially diluted 3.16-fold) were prepared. Two copies of plates were used—one for the GCN2 assay and a second for an artifact plate. Working reagents were prepared as follows—reaction buffer: Tris pH 7.5 20 mM, MgCl2 5 mM, DTT 1 mM, Brij-35 0.005%, EGTA 0.5 mM in water; 2× enzyme solution: GCN2 (produced in-house) 1.6 nM in reaction buffer; 2× substrate solution: GFP-eIFS1 (Thermo Fisher Scientific, PV4809) 50 nM, ATP 0.2 mM, tRNA 0.4 mg/ml in reaction buffer; p-GFP-eIF2S1 (artifact) solution: p-GFP-eIFS1 (produced by incubation of 100 nM GFP-eIF2S1 in reaction buffer with 100 uM ATP and 1 nM PERK KD enzyme for 3 hr at room temperature) 2 nM in reaction buffer; 3× stop/antibody solution: p-GFP-EIF2S1 Th-Ab (Thermo Fisher Scientific, PV4816) 6 nM, AZ13933939 3 uM, BSA 3% in reaction buffer. Reagents were loaded onto a liquid dispenser (Certus FLEX, Trajan Scientific and Medical), and 3 ul (1 ul for 1536-well) of 2× enzyme solution, followed by 3 ul (1 ul for 1536-well) of 2× substrate solution was added to the plates. When small numbers of plates were processed, the enzyme solution was added first to all plates, then the valve used for the substrate solution was primed immediately prior to use. Plates were tapped or spun 1 min/1K/RT to ensure proper mixing, followed by incubation at room temperature for 70 mins, covered/stacked in the dark. For the artifact plate, 6 ul of p-GFP-eIF2S1 solution was added prior to adding the stop/antibody solution. 3 ul (1 ul for 1536-well) of 3× stop/antibody solution was added to the plates, followed by a spin-down for 1 min/1K/RT, and incubation for 2-3 hr, sealed or covered with lids in the dark at room temperature. Plates were read on a plate reader (PHERAstar FSX, BMF Labtech) at Ex 340/Em 490/Em 520 nm.
By IC50 is commonly meant the concentration that inhibits the measured activity by half. Consider `Cc1cnc(Nc2cc(C)n(C)n2)nc1-c1c[nH]c2c(N3Cc4c(cccc4-c4ccc5c(cnn5C)c4)C3=O)cccc12` [Example 449, 2-(3-(2-((1,5-dimethyl-1H-pyrazol-3-yl)amino)-5-methylpyrimidin-4-yl)-1H-indol-7-yl)-4-(i-methyl-1H-indazol-5-yl)isoindolin-1-one], for which the IC50 was 10 to 100 nM. Regarding `CCCNc1cncc(O[C@H]2CCN(CC(=O)Nc3cccc4c(-c5nc(Nc6cc(C)n(C)n6)ncc5C)c[nH]c34)C2)n1` [Example 245, (S)-N-(3-(2-((1,5-dimethyl-1H-pyrazol-3-yl)amino)-5-methylpyrimidin-4-yl)-1H-indol-7-yl)-2-(3-((6-(propylamino)pyrazin-2-yl)oxy)pyrrolidin-1-yl)acetamide], the IC50 lay within 10 to 100 nM. In the case of `Cc1cnc(Nc2cc(C)n(C)n2)nc1-c1c[nH]c2c(N3Cc4c(cccc4-c4ccc(C#N)nc4)C3=O)cccc12` [Example 470, 5-(2-(3-(2-((1,5-dimethyl-1H-pyrazol-3-yl)amino)-5-methylpyrimidin-4-yl)-1H-indol-7-yl)-1-oxoisoindolin-4-yl)picolinonitrile], the concentration for half-maximal inhibition (IC50) was < 10 nM. For `Cc1cnc(Nc2cc(C)n(C)n2)nc1-c1c[nH]c2c(NC(=O)CN3CC[C@H](Oc4ccc(F)c(N)c4)C3)cccc12` [Example 87, (S)-2-(3-(3-amino-4-fluorophenoxy)pyrrolidin-1-yl)-N-(3-(2-((1,5-dimethyl-1H-pyrazol-3-yl)amino)-5-methylpyrimidin-4-yl)-1H-indol-7-yl)acetamide] the value was 10 to 100 nM; for `Cc1cnc(Nc2cc(C)n(C)n2)nc1-c1c[nH]c2c(N3Cc4c(cccc4-c4cnc(N(C)C)nc4)C3=O)cccc12` [Example 414, 2-(3-(2-((1,5-dimethyl-1H-pyrazol-3-yl)amino)-5-methylpyrimidin-4-yl)-1H-indol-7-yl)-4-(2-(dimethylamino)pyrimidin-5-yl)isoindolin-1-one], < 10 nM; for `Cc1cnc(Nc2cc(C)n(C)n2)nc1-c1c[nH]c2c(NC(=O)CN3CC[C@H](Oc4ccnc(NCC(F)F)n4)C3)cccc12` [Example 200, (S)-2-(3-((2-((2,2-difluoroethyl)amino)pyrimidin-4-yl)oxy)pyrrolidin-1-yl)-N-(3-(2-((1,5-dimethyl-1H-pyrazol-3-yl)amino)-5-methylpyrimidin-4-yl)-1H-indol-7-yl)acetamide], < 10 nM. In the case of `Cc1cnc(Nc2cc(C)n(C)n2)nc1-c1c[nH]c2c(NC(=O)CN3CC[C@H](Oc4nccc(-c5ccccc5)n4)C3)cccc12` [Example 254, (S)-N-(3-(2-((1,5-dimethyl-1H-pyrazol-3-yl)amino)-5-methylpyrimidin-4-yl)-1H-indol-7-yl)-2-(3-((4-phenylpyrimidin-2-yl)oxy)pyrrolidin-1-yl)acetamide], the half-maximal inhibitory concentration (IC50) lay in the range of 10 to 100 nM. The same measure for `Cc1cnc(Nc2cc(C)n(C)n2)nc1-c1c[nH]c2c(NC(=O)CN3CC[C@H](Oc4ccnc(NC5CCC5)n4)C3)cccc12` [Example 208, (S)-2-(3-((2-(cyclobutylamino)pyrimidin-4-yl)oxy)pyrrolidin-1-yl)-N-(3-(2-((1,5-dimethyl-1H-pyrazol-3-yl)amino)-5-methylpyrimidin-4-yl)-1H-indol-7-yl)acetamide]: < 10 nM. For `Cc1cnc(Nc2cc(C)n(C)n2)nc1-c1c[nH]c2c(NC(=O)CN3CC[C@@H](C(=O)N4CCNC(=O)C4)C3)cccc12` [Example 66, (R)-N-(3-(2-((1,5-dimethyl-1H-pyrazol-3-yl)amino)-5-methylpyrimidin-4-yl)-1H-indol-7-yl)-2-(3-(3-oxopiperazine-1-carbonyl)pyrrolidin-1-yl)acetamide] the value was 100 to 1000 nM. In the case of `Cc1cnc(Nc2cc(C)n(C)n2)nc1-c1c[nH]c2c(NC(=O)CN3CC[C@H](Nc4ccncn4)C3)cccc12` [Example 47, (S)-N-(3-(2-((1,5-dimethyl-1H-pyrazol-3-yl)amino)-5-methylpyrimidin-4-yl)-1H-indol-7-yl)-2-(3-(pyrimidin-4-ylamino)pyrrolidin-1-yl)acetamide], the concentration for half-maximal inhibition (IC50) was 10 to 100 nM. As to `Cc1cnc(Nc2cc(C)n(C)n2)nc1-c1c[nH]c2c(N3Cc4c(cccc4-c4ccccc4C(=O)O)C3=O)cccc12` [Example 458, 2-(2-(3-(2-((1,5-dimethyl-1H-pyrazol-3-yl)amino)-5-methylpyrimidin-4-yl)-1H-indol-7-yl)-1-oxoisoindolin-4-yl)benzoic acid], the IC50 was 10 to 100 nM. In the case of `Cc1cnc(Nc2cc(C)n(C)n2)nc1-c1c[nH]c2c(NC(=O)C(C)(C)N3CCCC3)cccc12` [Example 24, N-(3-(2-((1,5-dimethyl-1H-pyrazol-3-yl)amino)-5-methylpyrimidin-4-yl)-1H-indol-7-yl)-2-methyl-2-(pyrrolidin-1-yl)propenamide], the IC50 lay in the range of 100 to 1000 nM. Take `Cc1cnc(Nc2cc(C)n(C)n2)nc1-c1c[nH]c2c(NC(=O)CN3CC[C@H](Oc4ccsc4C(N)=O)C3)cccc12` [Example 109, (S)-3-((1-(2-((3-(2-((1,5-dimethyl-1H-pyrazol-3-yl)amino)-5-methylpyrimidin-4-yl)-1H-indol-7-yl)amino)-2-oxoethyl)pyrrolidin-3-yl)oxy)thiophene-2-carboxamide]: the IC50 is < 10 nM. For the molecule `Cc1cnc(Nc2cc(C)n(C)n2)nc1-c1c[nH]c2c(NC(=O)CN3CC[C@H](Oc4cc(-c5cnn(C)c5)ncn4)C3)cccc12` [Example 249, (S)-N-(3-(2-((1,5-dimethyl-1H-pyrazol-3-yl)amino)-5-methylpyrimidin-4-yl)-1H-indol-7-yl)-2-(3-((6-(1-methyl-1H-pyrazol-4-yl)pyrimidin-4-yl)oxy)pyrrolidin-1-yl)acetamide], the 50% inhibitory concentration (IC50) is < 10 nM. For `Cc1cnc(Nc2cc(C)n(C)n2)nc1-c1c[nH]c2c(NC(=O)CN3CC[C@H](Oc4ccnc(NCCCO)n4)C3)cccc12` [Example 206, (S)-N-(3-(2-((1,5-dimethyl-1H-pyrazol-3-yl)amino)-5-methylpyrimidin-4-yl)-1H-indol-7-yl)-2-(3-((2-((3-hydroxypropyl)amino)pyrimidin-4-yl)oxy)pyrrolidin-1-yl)acetamide] the value was < 10 nM. The same measure for `Cc1cnc(Nc2cc(C)n(C)n2)nc1-c1c[nH]c2c(NC(=O)CN3C[C@@H](F)[C@H](Oc4ccnc(NC5CC5)n4)C3)cccc12` [Example 53, 2-((3R,4R)-3-((2-(cyclopropylamino)pyrimidin-4-yl)oxy)-4-fluoropyrrolidin-1-yl)-N-(3-(2-((1,5-dimethyl-1H-pyrazol-3-yl)amino)-5-methylpyrimidin-4-yl)-1H-indol-7-yl)acetamide]: < 10 nM. Consider `Cc1cnc(Nc2cc(C)n(C)n2)nc1-c1c[nH]c2c(NC(=O)CN3CC[C@@H](O)C3)cccc12` [Example 71, (R)-N-(3-(2-((1,5-dimethyl-1H-pyrazol-3-yl)amino)-5-methylpyrimidin-4-yl)-1H-indol-7-yl)-2-(3-hydroxypyrrolidin-1-yl)acetamide], for which the IC50 is 10 to 100 nM. For `Cc1cnc(Nc2cc(C)n(C)n2)nc1-c1c[nH]c2c(N3Cc4cccc(NCC5CC5)c4C3=O)cccc12` [Example 351, 7-((cyclopropylmethyl)amino)-2-(3-(2-((1,5-dimethyl-1H-pyrazol-3-yl)amino)-5-methylpyrimidin-4-yl)-1H-indol-7-yl)isoindolin-1-one] the value was 100 to 1000 nM.

For the molecule `Cc1cnccc1-c1nccc2c1CN(c1cccc3c(-c4nc(Nc5cc(C)n(C)n5)ncc4C)c[nH]c13)C2=O` [Example 506, 2-(3-(2-((1,5-dimethyl-1H-pyrazol-3-yl)amino)-5-methylpyrimidin-4-yl)-1H-indol-7-yl)-4-(3-methylpyridin-4-yl)-2,3-dihydro-1H-pyrrolo[3,4-c]pyridin-1-one], the IC50 was < 10 nM.

In the case of `Cc1cnc(Nc2cc(C)n(C)n2)nc1-c1c[nH]c2c(N3Cc4c(NC(=O)c5ccoc5)cccc4C3=O)cccc12` [Example 338, N-(2-(3-(2-((1,5-dimethyl-1H-pyrazol-3-yl)amino)-5-methylpyrimidin-4-yl)-1H-indol-7-yl)-1-oxoisoindolin-4-yl)furan-3-carboxamide], the IC50 is 10 to 100 nM.

Turning to `Cc1cnc(Nc2cc(C)n(C)n2)nc1-c1c[nH]c2c(NC(=O)CN3C[C@@H](F)[C@@H](O)C3)cccc12` [Example 50, N-(3-(2-((1,5-dimethyl-1H-pyrazol-3-yl)amino)-5-methylpyrimidin-4-yl)-1H-indol-7-yl)-2-((3R,4S)-3-fluoro-4-hydroxypyrrolidin-1-yl)acetamide], the half-maximal inhibitory concentration (IC50) was in the range of 10 to 100 nM.

Take `Cc1cnc(Nc2cc(C)n(C)n2)nc1-c1c[nH]c2c(N3Cc4c(NC(=O)C5CCOCC5)cccc4C3=O)cccc12` [Example 337, N-(2-(3-(2-((1,5-dimethyl-1H-pyrazol-3-yl)amino)-5-methylpyrimidin-4-yl)-1H-indol-7-yl)-1-oxoisoindolin-4-yl)tetrahydro-2H-pyran-4-carboxamide]: the half-inhibitory concentration (IC50) is < 10 nM.

These data come from patent US20240025884A1 (Dong-A ST Co., Ltd., priority 2022, published 2024).
